A melting point compilation (Tetko et al.; mined from patent text by program, amines drawn as free bases though some values may be those of a salt)

| melting point [°C] | Compound |
| --- | --- |
| 119 to 120 | O=C(NC(=O)C(F)(F)F)c1ccccc1-c1noc(-c2ccccc2F)n1 |
| 81 to 83.5 | CC(C)(C)C(O)(C=Cc1ccc(Cl)cc1)Cn1cncn1 (stereo unspecified) |
| 179 to 181 | O=C(O)C1CCN(C(=O)NS(=O)(=O)C=Cc2ccccc2)CC1 |
| 125 | N=C(NC(=O)c1ccccc1)Oc1ccccc1 |
| > 300 | CCOCCn1cc2c(C3C(=O)Nc4ccc(Cl)cc43)nc(Cl)nc2n1 (stereo unspecified) |
| 137 to 138 | CCOC(=O)CNc1ncccc1NC(=O)c1ccc(Cl)c(Cl)c1 |
| 179 to 180 | CCOC(=O)CCCc1ccc(N[C@@H](CCC(N)=O)C(=O)O)cc1 |
| 110 to 111 | COC(=O)c1cc(Cl)cc([N+](=O)[O-])c1N |
| 227 to 229 | COc1cccc(CNC(=O)c2nc3ccc(F)c(OCCc4ccc(C(=O)O)cc4)c3c(=O)[nH]2)c1 |
| 28 to 32 | COCc1c(Cl)nnc(Cl)c1OC |
| 193 | COCCn1cc(C(=O)NCc2ccc(Cl)cc2)c(=O)c2cc(CO)sc21 |
| 143 to 145 | CN(C)C(=O)NCc1cccc2c1C(=O)N(C1CCC(=O)NC1=O)C2=O (stereo unspecified) |
| 286 | COc1cc(C)cc(OC)c1-c1nc(N)n[nH]1 |
| 57 to 59 | CCCCCCNC(=O)n1nc(Oc2ncc(C(F)(F)F)cc2Cl)c(Cl)c1C |
| 158 to 160 | Cc1nc(-c2ccc([N+](=O)[O-])c(C)c2)c[nH]1 |
| 153 to 155 | CCNc1ncc(S(=O)(=O)NCC)cc1[N+](=O)[O-] |
| 167 to 168 | COc1cc(-n2cccn2)ccc1-n1cc(OC)c(=O)c(-c2ccnn2-c2cccc(Cl)c2)n1 |
| 74 to 75 | COCOCc1nc(-c2ccccc2)oc1COc1ccc(OCc2nc(-c3ccccc3)oc2C)cc1 |
| 93 to 97 | CC(C)(C)C(=O)ON1C(C)(C)CC(OC(=O)CCCCCCCCC(=O)OC2CC(C)(C)N(OC(=O)C(C)(C)C)C(C)(C)C2)CC1(C)C |
| 168 to 170 | CC(C)Cc1ccc2nc(Cl)c(S(N)(=O)=O)n2n1 |
| 152 | O=[N+]([O-])c1ccc(C=C2c3ccccc3C=Cc3ccccc32)cc1 |
| 157 to 158 | COC(=O)C1C(=O)NC(C)C1c1c(Cl)cccc1Cl (stereo unspecified) |
| 55 to 56 | O=C(CCCCCNC(=O)C(c1ccccc1)c1ccccc1)NO |
| 97 to 99 | CCCN(CCC)S(=O)(=O)c1ccc(C(=O)c2cc3c(cc2C)OC(C(=O)OCC)O3)cc1 (stereo unspecified) |

| melting point [°C] | Compound |
| --- | --- |
| 132 to 133 | Cc1cccc(COc2cccc(OCc3ccc(C(C)C)cc3)c2)c1C(=O)O |
| 110 to 114 | CCOC(=O)CCCCOc1ccc(-c2nc(N3CCOCC3)c3sc(CN4CCN(S(C)(=O)=O)CC4)cc3n2)cc1 |
| 233 to 234 | CCOC(=O)c1cnn(C)c1C(=O)Nc1ccn2nc(N3CCCC3)nc2c1 |
| 150 to 152 | COC(=O)COc1ccc(C(=O)CN2CCN(c3ccncc3)CC2)cc1 |
| 151 to 152 | O=S1(=O)N=CN(C2CC2)c2c(F)cccc21 |
| 99 to 101 | CN1OC(c2ccc(Cl)cc2)CC1(Cn1ccnc1)c1ccco1 (stereo unspecified) |
| 47 to 48 | O=CNc1ccccc1F |
| 123 to 125 | Cc1oc(-c2ccc(C(F)(F)F)cc2)cc1CC(=O)O |
| 207 to 208 | Cc1c(C)n(-c2ccccc2)c2ncn(C)c(=O)c12 |
| 115 to 116 | O=C1c2cc(Oc3ccc(F)cc3)ccc2CN1Cc1cccnc1 |
| 112 to 113 | CCOCCCOc1ccc(-c2ccc3c(c2)C=C(C(=O)OC)CCN3C=O)cc1 |
| 48 to 49 | N#CCc1ccccc1Sc1ccc(Cl)c(Cl)c1 |
| 62 | CCCCOc1nc(O)ns1 |
| 109 | Cc1ccc(S(=O)(=O)N2CCCC2c2ccccc2)cc1 (racemic) |
| 129 to 132 | CCn1cc(-c2cnccn2)cc(Br)c1=O |
| 111 to 112 | CCOC(=O)c1cc2cc(Cl)cc([N+](=O)[O-])c2o1 |
| 168 to 170 | Cc1cc(C)cc(NC(=O)Nc2ccc(-c3c(C(N)=O)[nH]c4ccccc34)cc2)c1 |
| 154 to 155 | COc1ccc2c(c1)Sc1ccc(C(C)C(N)=O)cc1C(=O)C2 (stereo unspecified) |
| 122 to 124 | CC(C)C1=C(c2ccc(F)cc2)C(=O)C(C(C)C)=C(C(C)C)C1=O |
| 159 to 166 | O=S1(=O)Cc2cc(Cl)ccc2Oc2ccccc21 |
| 63 to 65 | COC(=O)C(=O)c1ccc(OCCSc2ccc3ccccc3c2)cc1 |
| 114 | C#Cc1ccccc1-c1ccc(I)cc1 |
| 287 | COc1cccc(C(=O)NN=C2C(=O)Nc3ccc(I)cc32)c1 |
| 96 to 100 | c1ccc(C(N=C2CCCC2)c2ccccc2)cc1 |

| melting point [°C] | Compound |
| --- | --- |
| 159 to 161 | COc1nsnc(Cl)c1=O |
| 163 to 165 | CNc1c(C#N)cnn1-c1ccc(Cl)c(Cl)c1Cl |
| 145 to 146 | CC(=NNc1ccccc1[N+](=O)[O-])c1ccccn1 |
| 204 to 209 | Nc1sc2cccnc2c1N |
| 259 to 261 | N#Cc1c2ccccc2cc2c1sc1cccc(-c3cc(Br)c(OCC(=O)O)c(Br)c3)c12 |
| 188 | NC(=O)NCCNc1ccc([N+](=O)[O-])cc1Cl |
| 91 | CCCCCOC(=O)CCNCC(O)COc1ccccc1C#N (stereo unspecified) |
| 100 to 105 | N#CC(O)C(=O)c1ccccc1 (stereo unspecified) |
| 148 to 149 | CCOC(=O)c1cnn2c(-c3ccc(OC)c(OC)c3)ccnc12 |
| 161 to 162 | COC(=O)c1c(N)ncn1C1c2ccsc2CC1(C)C (stereo unspecified) |
| 45 | CCCCCCC(O)CNCCO (stereo unspecified) |
| 143 to 147 | CCc1nc2c(cnn2CC)c(NC2CCOCC2)c1CNC(=O)c1cccc(C(=O)NCc2ccc(OC)c(-c3cccc(CN4CCCNCC4)c3)c2)c1 |
| 157 to 158 | NC(=O)CC[C@H](NC(=O)c1ccc(OCc2ccccc2)cc1OCc1ccccc1)C(=O)N1CCN(c2ccccc2)CC1 |
| 178 to 181 | CCCc1c(OCCCCCc2c(Cl)ccc(O)c2O)ccc(C(=O)O)c1O |
| 174 to 175 | O=C1COc2cc(SCc3ccc(Cl)cc3)ccc2N1 |
| 60 to 61 | CCCCCCCCCCCCCCCCC[C@@H](C[C@@H]1OC(=O)[C@H]1CC)OC(=O)[C@H](CC(C)C)NC=O |
| 116 to 118 | C[C@H](Cc1cc2c(c(C(N)=O)c1)N(CCCCO)CC2)NCCOc1ccccc1OCC(F)(F)F |
| 224 to 226 | Fc1cccc(Cl)c1CNc1ncnc2nsnc12 |
| 193 to 195 | CNc1nc(C)c(-c2ccnc(Nc3cccc(CC(=O)OCCOC)c3)n2)s1 |
| 124 to 125 | Cc1ccc(-n2cc(-c3cccn4nc(Nc5ccc(C6CCN(C(=O)OC(C)(C)C)CC6)cc5)nc34)cn2)cc1 |
| 127 to 129 | O=C1CC(CO)(C(=O)N(Cc2ccccc2)Cc2ccccc2)CN1Cc1ccccc1 (stereo unspecified) |
| 166 to 167 | CCOC(=O)C1=C(C)NC(c2nccn2C)=NC1c1ccc(F)cc1Cl (stereo unspecified) |
| 190 to 194 | COc1ccc(N2Cc3nc(CO)nn3-c3cccnc32)cc1 |
| 196 | N#Cc1cc(NC(=O)c2ccn(-c3ccc(Cl)cc3)c2)ccc1N1CCN(CCO)CC1 |

| melting point [°C] | Compound |
| --- | --- |
| 259 to 260 | CNC(=O)NC(=O)C(CC1CCCC1)c1ccc(S(C)(=O)=O)c(Br)c1 (stereo unspecified) |
| 63 to 65 | O=C(Br)Cc1ccc(-c2cccc(Cl)c2)cc1 |
| 149 to 150 | COc1cc2ncnc(N3CCN(C(=S)Nc4ccc(S(=O)(=O)N5CCCCC5)cc4)CC3)c2cc1OC |
| 80.9 to 81.6 | CCCCCCCC(=O)Nc1ccc([N+](=O)[O-])cc1 |
| 135 to 137 | COc1ccc(-c2cc(C(F)F)nn2-c2ccc(S(N)(=O)=O)cc2)cc1I |
| 106 to 109 | COc1ccc(C(=O)c2c(-c3ccc(OC)cc3)oc3cc(OC)ccc23)cc1 |
| 201 to 203 | O=C(COc1ccccc1)Nc1ccccc1C(=O)O |
| 186 to 187 | Oc1ccc(-c2cc3cc(O)ccc3o2)c(-c2ccc(OCc3ccccc3)cc2)c1 |
| 83 to 85 | O=C(NCCCCN1C2CCC1CN(c1ccc(Cl)cc1)C2)C(F)(F)F |
| 114 to 115 | CC(=O)OCCSc1nc(C(C)(C)C)n[nH]1 |
| 98 | CCC(C)N(C)C(=O)c1cc(-c2ccccc2Cl)c2sccc2c1 (stereo unspecified) |
| 105 to 109 | Oc1cccc2c1CCC(N(CCCF)CCc1cccs1)C2 (stereo unspecified) |
| 52 to 70 | CC1(C)C2CCC1(CS(=O)(=O)NCCC1CCc3ccccc31)C(=O)C2 (stereo unspecified) |
| 168 to 170 | CN(C)C(=O)Nc1ccc(Br)cc1 |
| 89 to 90 | COCNC(=S)n1nc(Oc2ccc(C#N)cc2C(F)(F)F)cc1C |
| 245 | COc1ccc(-c2nc(N)ncc2-c2ccc(=O)n(C)n2)cc1F |
| 240 to 243 | COc1cc(OC)c2c3c(C(N)=O)cccc3n(Cc3ccccc3)c2c1 |
| 106 to 107 | c1ccc(-c2ccc3nc(COc4ccc(CCCn5ccnc5)cc4)cn3c2)cc1 |
| 128 | COc1ccc(S(=O)(=O)N(CC(N)=O)c2ccc(Cl)cc2C(O)c2c(Cl)cccc2Cl)cc1OC (stereo unspecified) |
| 74 to 78 | COCc1cc(-c2ccccc2N)[nH]n1 |
| 124 | COc1ccc(C2=C(C#N)C(c3ccccc3Cl)c3c[nH]nc3N2)cc1 (stereo unspecified) |
| 174 to 176 | O=C(NCc1ccccc1Cl)c1cccnc1Oc1cccnc1 |

| Compound | melting point [°C] |
| --- | --- |
| CNC(=N[N+](=O)[O-])N(Cc1cnc(Cl)s1)C(=O)N(C)C | 140 |
| O=P(O)(O)Cc1ccc(CP(=O)(O)O)cc1 | > 300 |
| Cc1cccc2c1CCCC2c1c[nH]cn1 (stereo unspecified) | 135 |
| COc1cc(OC)cc(C2CN3CCC2CC3)c1 (stereo unspecified) | 142 to 145 |
| Cc1cc2c(cc1O)C(C)(C)CC1(CC(C)(C)c3cc(OCCCC(=O)O)c(C)cc3O1)O2 (stereo unspecified) | 173 to 174 |
| CCc1c(CNS(=O)(=O)Cc2cccc(C(F)(F)F)c2)nn(-c2ccc(Cl)cc2Cl)c1-c1ccc(Br)cc1 | 108 |
| COc1c(C)c(NC(=O)CC(C)(C)C)c(C)c2c1OCC2c1ccc(C(C)C)cc1 (stereo unspecified) | 150 to 151 |
